# From publication PMC5431807, “Structural Basis for Importin-α Binding of the Human Immunodeficiency Virus Tat” (Scientific Reports, 2017)
# Entries after “also recorded” stand apart in the source; their conditions may differ.
# Columns and labels:
# [1] = biological target: T1, importin-α (Mus musculus, UniProt P52293); experiment: Binding of importin-α to immobilised GST-Tat:NLS/CPP on glutathione column, SDS-PAGE; design: 6-His; made in house; The pET30 vector and Studier autoinduction imply E. coli (own inference); conditions: GST-Tat:NLS/CPP fusion immobilised on glutathione column, importin-α passed over
# [2] = biological target: T1, importin-α; experiment: X-ray crystal structure of Tat:NLS/CPP importin-α complex (PDB 5SVZ)
# [3] = overall binding, 2.0 Å structure
sequence,measurement,setting,value
GRKKRRQRRRAPQN [Tat:NLS/CPP],binding to importin-α (column retention / complex formation),[1],strong and direct interaction
same,binding site on importin-α,[2]; 2.0 Å structure,binds to the major binding site of importin-α within ARM domains 2–4; also recorded: no NLS residues in the minor binding site
same,hydrogen bond distance,"[2]; Tat Arg49 O – importin-α Asn235 ND2, PDBSum",2.77 Å
same,hydrogen bond distance,"[2]; Tat Arg52 NH1 – importin-α Arg106 O, PDBSum",2.81 Å
same,hydrogen bond distance,"[2]; Tat Arg52 NH1 – importin-α Leu104 O, PDBSum",2.84 Å
same,hydrogen bond distance,"[2]; Tat Arg52 NH2 – importin-α Arg106 O, PDBSum",3.02 Å
same,hydrogen bond distance,"[2]; Tat Arg52 NH2 – importin-α Glu107 O, PDBSum",3.20 Å
same,hydrogen bond distance,"[2]; Tat Arg53 N – importin-α Asn146 OD1, PDBSum",2.89 Å
same,hydrogen bond distance,"[2]; Tat Arg53 NH1 – importin-α Gln181 OE1, PDBSum",2.49 Å
same,hydrogen bond distance,"[2]; Tat Arg53 O – importin-α Asn146 ND2, PDBSum",2.66 Å
same,hydrogen bond distance,"[2]; Tat Arg53 O – importin-α Trp142 NE1, PDBSum",3.24 Å
same,salt bridge distance,"[2]; Tat Lys50 NZ – importin-α Asp192 OD1, salt bridge interaction, PDBSum",2.89 Å
same,hydrogen bond distance,"[2]; Tat Lys50 NZ – importin-α Gly150 O, PDBSum",2.91 Å
same,hydrogen bond distance,"[2]; Tat Lys50 NZ – importin-α Thr155 OG1, PDBSum",2.80 Å
same,hydrogen bond distance,"[2]; Tat Lys51 N – importin-α Asn188 OD1, PDBSum",2.81 Å
same,hydrogen bond distance,"[2]; Tat Lys51 O – importin-α Asn188 ND2, PDBSum",2.79 Å
same,hydrogen bond distance,"[2]; Tat Lys51 O – importin-α Trp184 NE1, PDBSum",3.02 Å
same,buried surface area,[2]; [3],717 Å^2
same,number of salt bridge interactions,[2]; [3],1 salt bridge
